Assay results reported in patent US6951883B2, “2H-1-benzopyran derivatives processes for their preparation and pharmaceutical compositions thereof” (Chiesi Farmaceutici S.p.A., priority 2001, dated 2005).

Assays:
[1] = system: immature female rats (E2-stimulated uterus); test: Immature female rat assay, antiuterotrophic activity; format: in vivo
Description: (§1) In Vivo Studies—Immature Female Rat Assay.
Antiuterotrophic Activity
(§2) Experiments have been conducted as described in Eppenberger U et al, Am J Clin Oncol 14 (suppl. 2), S5-S14, 1991.
This concentration of E2 was the lowest producing near-maximal effect and was chosen on the basis of preliminary dose-response experiments.

OVX rats [2] = test: Four-week OVX rat assay, bone mineral density (lumbar spine L1-4) by DEXA; format: in vivo; details: 4 weeks
Protocol: Effects in the Ovariectomized (OVX) Rat Model
(§3) The experiments have been conducted according to Kaln D N, Bone Mineral 15, 175-192, 1991 and Grese T A et al J Med Chem 40, 146-167, 1997.
(§4) The effects of the tested compounds were evaluated also in 9-11-month-old OVX rats that were dosed for 4 weeks post-surgery and compared with OVX and Sham controls.
(§5) Tissue-specific estrogen agonist effects were examined utilizing uterine weight, uterine histology, uterine eosinophil peroxidase activity (EPO), bone mineral density (BMD), and serum cholesterol levels as end points.
Effect on Bone Mineral Density (BMD) (Lumbar Spine L1-4)
Bone mineral density (BMD) was measured by DEXA (Dual Energy XRay Absorptiometry) using a Hologic QDR-1000 plus instrument equipped with dedicated software for small animal measurements. An ultrahigh-resolution mode (line spacing 0.0254 cm and resolution 0.0127 cm) was used with a collimator of 0.63 mm diameter. This technique provides an integrated measure of both cortical and trabecular bone.
In vivo DEXA measurements were carried out immediately before surgery (baseline scan) and 4 weeks after surgery. The anatomic region examined was the lumbar spine L1-4.
All animals were anesthetized before scanning with a mixture of ketamine and p-promazine. For each scan a rat was placed in a supine position with the spine parallel to the long axis of the densitometer table. The lumbar spine was scanned using the pelvic bones as landmark; analysis of this site was accomplished by dividing vertebra and intervertebral spaces with subregional high resolution software and including only target vertebra in the global region of interest.
Percent protection was calculated by the following formula: % protection=[(% chance BMDtest compound−% chance BMDOVX control)/(% chance BMDsham control−% chance BMDOVX control)]×100.

OVX rats [3] = test: Four-week OVX rat assay, uterine effects (weight, eosinophil peroxidase, histology); details: in vivo
Protocol: as §3, §4, §5
The degree of eosinophilic peroxidase induction of the uterus may be a useful marker for estrogen-effected growth responses (Lyttle C R and DeSombre E R Proc Natl Acad Sci USA 74, 3162-3166, 1977).

human ER-α = target: T1, human ER-α (Homo sapiens, UniProt P03372); test: Human estrogen receptor-α binding
T1 sequence (P03372 1-595): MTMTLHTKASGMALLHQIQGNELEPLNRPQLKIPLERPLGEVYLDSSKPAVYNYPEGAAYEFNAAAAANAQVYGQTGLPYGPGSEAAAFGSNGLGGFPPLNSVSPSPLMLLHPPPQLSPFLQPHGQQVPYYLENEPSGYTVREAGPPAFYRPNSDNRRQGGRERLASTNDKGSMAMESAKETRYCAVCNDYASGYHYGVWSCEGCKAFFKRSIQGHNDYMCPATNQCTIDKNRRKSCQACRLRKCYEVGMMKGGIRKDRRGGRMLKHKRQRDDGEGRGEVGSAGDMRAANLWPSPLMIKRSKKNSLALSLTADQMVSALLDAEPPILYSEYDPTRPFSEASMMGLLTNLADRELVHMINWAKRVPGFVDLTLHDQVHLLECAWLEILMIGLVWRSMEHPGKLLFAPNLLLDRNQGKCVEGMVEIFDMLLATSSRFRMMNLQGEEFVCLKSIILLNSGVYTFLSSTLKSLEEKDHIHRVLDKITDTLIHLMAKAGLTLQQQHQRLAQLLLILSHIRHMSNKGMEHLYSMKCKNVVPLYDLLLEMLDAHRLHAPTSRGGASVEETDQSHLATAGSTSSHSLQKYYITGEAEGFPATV
Description: (§6) In Vitro Study—Human Estrogen Receptor-α and -β (ER-α and ER-β)

human ER-β = human ER-β (Homo sapiens, UniProt Q92731); test: Human estrogen receptor-β binding; details: for affinity for ER-β higher than raloxifene: compared with raloxifene
Chain of human ER-β (Q92731 whole entry): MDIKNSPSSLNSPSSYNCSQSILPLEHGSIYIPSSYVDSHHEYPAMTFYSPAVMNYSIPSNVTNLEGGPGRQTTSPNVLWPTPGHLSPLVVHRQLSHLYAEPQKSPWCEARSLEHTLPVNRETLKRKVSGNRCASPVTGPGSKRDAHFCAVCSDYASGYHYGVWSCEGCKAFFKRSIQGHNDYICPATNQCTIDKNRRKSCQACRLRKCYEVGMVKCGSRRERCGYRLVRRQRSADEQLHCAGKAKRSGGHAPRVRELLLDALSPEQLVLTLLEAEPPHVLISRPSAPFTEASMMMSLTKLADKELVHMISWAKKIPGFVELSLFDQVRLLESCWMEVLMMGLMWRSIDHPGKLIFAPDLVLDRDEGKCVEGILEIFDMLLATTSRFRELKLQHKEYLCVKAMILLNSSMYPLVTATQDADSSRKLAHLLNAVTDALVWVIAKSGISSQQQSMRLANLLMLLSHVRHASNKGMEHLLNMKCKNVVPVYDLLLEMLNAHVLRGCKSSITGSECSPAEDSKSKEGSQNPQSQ
Description: as §6

[4] = system: immature female rats (uterine weight); test: Immature female rat assay, uterotrophic activity; format: in vivo; details: for increase of uterine weight compared with vehicle treated control rats: 0.1 mg/kg/day; for uterine weight versus control rats: 0.01, 1 and 10 mg/kg/day; for uterine weights versus control rats: 0.01, 0.1, 1 and 10 mg/kg·day
Description: as §1, §2

OVX rats [5] = test: Four-week OVX rat assay, serum cholesterol levels; format: in vivo; details: for lowering of serum cholesterol levels, comparison in words: with respect to controls, compared with E2 / Compound II
Protocol: as §3, §4, §5
Effect on Serum Cholesterol Levels

MCF-7 = test: cells; details: for concentration of total growth inhibition: 72-hours incubation; for IC50: read-out: Inhibitory Concentration IC50
Protocol: In Vitro Study—MCF-7 Cell Proliferation
The tumor cells were obtained from American Type Culture Collection (ATCC HTB-22). The culture media used was Minimum Essential medium with 10% fetal bovine serum, and media were supplemented with 1% antibiotic-antimycotic. Aliquots of 100 μl of cell suspension (5×10^3/well) were placed in 96-well microtiter plates in an atmosphere of 5% CO2 at 37° C. After 24 hours, 100 μl of growth medium, 2 μl of test solution, mitomycin or vehicle (DMSO, final concentration 0.4%), was added respectively per well in duplicate for an additional 72-hours incubation. At the end of incubation, 20 μl of alamarBlue 75% reagent was added to each well for another 6-hour incubation before detection of cell viability by fluorescent intensity (excitation at 530 nm and emission at 590 nm).

Solubility in water = format: physicochemical; details: r.t.
[6] = oral, E2 0.05 mg/kg per os for 3 days

Molecule: 17α-ethynil estradiol [reference compound]
- increase of uterine wet weight compared with vehicle-treated controls ([1]; 0.05 mg/kg per os for 3 days): 170-220%
- % protection of BMD (OVX rats [2]; first experiment, 0.1 mg/kg): ~50%
- % protection of BMD (OVX rats [2]; second experiment, 0.1 mg/kg): ~95%
- uterine epithelia / endometrium histology (OVX rats [3]): full disappearance of epithelium atrophy

Molecule: Oc1ccc2c(c1)OCC(c1ccccc1)=C2Cc1ccc(OCCN2CCCCC2)cc1 [Compound I, 3-phenyl-4-(4-(2-(N-piperidinyl)ethoxy)benzyl)-7-hydroxychrom-3-ene]
- Ki (human ER-α): 0.041 ± 0.011 nM
- Ki (human ER-β): 0.157 ± 0.028 nM
- affinity for ER-β higher than raloxifene (human ER-β): 10 fold
- dose at which total antagonism of E2 uterotrophic action was observed ([1]; oral): 1 to 10 mg/kg/day
- EC50, inhibition of the uterotrophic action of E2 [1, 6]: 0.33 mg/kg·day
- increase of uterine weight compared with vehicle treated control rats [4]: 17%
- uterine weight versus control rats [4]: not significantly different from control rats
- % protection of BMD (OVX rats [2]; first experiment, 10 mg/kg/day): 47%
- maximal lowering of cholesterol, inhibition relative to the OVX control (OVX rats [5]; 10 mg/kg): 67%
- ED50 (OVX rats [5]; Rattus norvegicus, 672 h, 0.1-10 mg/kg day, 4 weeks, read-out: ED50, decrease of total serum cholesterol (half maximal efficacy)): 0.12 mg/kg
- concentration of total growth inhibition (MCF-7): 11 µM
- CC50 (MCF-7; Homo sapiens, MCF7, 72 h, read-out: 50% lethal concentrations (LC50)): 20000 nM
- IC50 (MCF-7; Homo sapiens, MCF7, 72 h): 6500 nM

Molecule: COc1ccc(C2=C(Cc3ccc(OCCN4CCCCC4)cc3)c3ccc(O)cc3OC2)cc1.Cl [Compound II, 3-(4-methoxy)phenyl-4-[[4-[2-(1-piperidinyl)ethoxyl]phenyl]methyl]-2H-1-benzopyran-7-ol hydrochloride]
- Ki (human ER-α): 0.017 ± 0.002 nM
- Ki (human ER-β): 0.099 ± 0.005 nM
- affinity for ER-β higher than raloxifene (human ER-β): 16 fold
- dose at which total antagonism of E2 uterotrophic action was observed ([1]; oral): 0.1-1 mg/kg·day
- ED50 = dose required to produce 50% reduction in estradiol-stimulated growth [1, 6]: 0.016 mg/kg·day
- uterine weights versus control rats [4]: not significantly different from control rats
- % protection of BMD (OVX rats [2]; second experiment, 0.1 mg/kg): 60%
- % protection of BMD (OVX rats [2]; second experiment, 1 mg/kg·day): 119%
- decrease of total serum cholesterol, inhibition (OVX rats [5]; 0.1 mg/kg·day): 75%
- decrease of total serum cholesterol, inhibition (OVX rats [5]; 1 mg/kg·day): 81%
- lowering of serum cholesterol levels, comparison in words (OVX rats [5]): as efficacious as E2

Molecule: CS(=O)(=O)O.Oc1ccc2c(c1)OCC(c1ccccc1)=C2Cc1ccc(OCCN2CCCCC2)cc1 [Example 43, 3-phenyl-4-(4-(2-(N-piperidinyl)ethoxy)benzyl)-7-hydroxychrom-3-ene methansulfonate (1:1)]
- solubility (Solubility in water): > 1000 µg/mL

Molecule: COc1ccc2c(c1)OC(C)(C)[C@@H](c1ccccc1)[C@@H]2c1ccc(OCCN2CCCC2)cc1 [levormeloxifene]
- inhibition of E2 stimulation of the uterus ([1]; at 1 mg/kg/day, partial antagonism): 40-45%
- uterine weights versus control rats [4]: significantly increased
- maximal agonist activity, % that of E2 ([4]; at 1 mg/kg): 60-65%
- lowering of serum cholesterol levels, comparison in words (OVX rats [5]): significantly less potent
- eosinophilic peroxidase activity compared to OVX uteri (OVX rats [3]): significantly increased
- uterine epithelia / endometrium histology (OVX rats [3]): full disappearance of epithelium atrophy

Molecule: O=C(c1ccc(OCCN2CCCCC2)cc1)c1c(-c2ccc(O)cc2)sc2cc(O)ccc12 [raloxifene]
- ED50 = dose required to produce 50% reduction in estradiol-stimulated growth [1, 6]: 0.39 mg/kg·day
- increase of uterine weight compared with vehicle treated control rats [4]: 32%
- uterine weights versus control rats [4]: not significantly different from control rats
- uterine weight versus control rats [4]: not significantly different from control rats
- lowering of serum cholesterol levels, comparison in words (OVX rats [5]): significantly less potent
- concentration of total growth inhibition (MCF-7): 18 µM
- IC50 (MCF-7; Homo sapiens, MCF7, 72 h): 11000 nM

Molecule: CC/C(=C(\c1ccccc1)c1ccc(OCCN(C)C)cc1)c1ccccc1 [tamoxifene]
- concentration of total growth inhibition (MCF-7): 11 µM
